# Experimental data: US20220177459A1, “AROMATIC AMINE COMPOUND AND USE THEREOF IN PREPARATION OF AR AND BRD4 DUAL INHIBITORS AND REGULATORS” (HINOVA PHARMACEUTICALS INC., priority 2019, published 2022)
# What was measured:
# Format in all cases: cell-based
# LNCaP/AR cells = assay: Inhibition of proliferation of prostate cancer cells LNCaP/AR (CCK-8); conditions: 144 h, 6 days culture, CCK-8, OD 450 nm, read-out: IC50 (μM), inhibitory activity on prostate cancer cell LNCap/AR
# Description: 1. Biological determination of the inhibitory effect on the proliferation of prostate cancer cells LNCaP/AR
# Cell culture medium: RIPM1640 media, 10% FBS, 1% Pen Strep;
# (§1) 1) LNCaP/AR cells were subcultured in cell culture medium, and the cells in good growth condition were seeded in a 96-well plate, with 80 μL per well (i.e. 1000 cells per well), and cultured overnight in a 37° C., 5% CO2 cell incubator.
# 2) The drug was prepared with dimethylsulfoxide (DMSO) as a 10 mM stock solution.
# (§2) Immediately before use, the stock solution was diluted 3 times with DMSO, and then diluted as a 3-fold gradient to obtain 9 concentration gradients. Then, the compound of each concentration was diluted 200 times with the culture media (to ensure that the DMSO concentration in the culture system was 0.1%), and two multiple holes were set for each concentration. 20 μL of the diluted compound was added to the cell culture well (with a final concentration of 10 μM, 3.3 μM, 1.1 μM . . . ), and then shook gently to mix. In addition, three negative control wells with only cells and three blank control wells with only culture medium were included (6 wells being each added with DMSO diluted 200 times with 20 μL culture medium).
# (§3) 1) After culturing for 6 days, 10 μL of CCK-8 was added to each well and continued culturing for 1 hour in a 37° C., 5% CO2 cell incubator.
# (§4) 2) The absorbance (OD value) was measured at 450 nm using a multifunctional microplate reader.
# (§5) 3) The data were analyzed by the Dose-response-inhibition equation in the software GraphPad Prism5, and the IC50 value was obtained.
# 22RV1 cells = assay: Inhibition of proliferation of other prostate cancer cells: 22RV1; conditions: Homo sapiens, same method as LNCaP/AR
# Description: as §1, §2, §3, §4, §5
# 2. Biological determination of the inhibitory effect on the proliferation of other prostate cancer cells
# The inhibitory activity of the compound according to the present invention on other drug-resistant prostate cancer cells was measured by the same method as described above, in which VCaP and 22RV1 cells were commercially available.
# androgen receptor (AR) = target: T1, androgen receptor (AR) (Homo sapiens, UniProt P10275); assay: Inhibitory activity on the function of androgen receptor (AR), luciferase reporter in transfected cells; conditions: transfected with AR and pGL4.36, testosterone 2 nM, Steady-Glo
# T1 construct: host or cells: HEK293
# T1 sequence (P10275 1-920): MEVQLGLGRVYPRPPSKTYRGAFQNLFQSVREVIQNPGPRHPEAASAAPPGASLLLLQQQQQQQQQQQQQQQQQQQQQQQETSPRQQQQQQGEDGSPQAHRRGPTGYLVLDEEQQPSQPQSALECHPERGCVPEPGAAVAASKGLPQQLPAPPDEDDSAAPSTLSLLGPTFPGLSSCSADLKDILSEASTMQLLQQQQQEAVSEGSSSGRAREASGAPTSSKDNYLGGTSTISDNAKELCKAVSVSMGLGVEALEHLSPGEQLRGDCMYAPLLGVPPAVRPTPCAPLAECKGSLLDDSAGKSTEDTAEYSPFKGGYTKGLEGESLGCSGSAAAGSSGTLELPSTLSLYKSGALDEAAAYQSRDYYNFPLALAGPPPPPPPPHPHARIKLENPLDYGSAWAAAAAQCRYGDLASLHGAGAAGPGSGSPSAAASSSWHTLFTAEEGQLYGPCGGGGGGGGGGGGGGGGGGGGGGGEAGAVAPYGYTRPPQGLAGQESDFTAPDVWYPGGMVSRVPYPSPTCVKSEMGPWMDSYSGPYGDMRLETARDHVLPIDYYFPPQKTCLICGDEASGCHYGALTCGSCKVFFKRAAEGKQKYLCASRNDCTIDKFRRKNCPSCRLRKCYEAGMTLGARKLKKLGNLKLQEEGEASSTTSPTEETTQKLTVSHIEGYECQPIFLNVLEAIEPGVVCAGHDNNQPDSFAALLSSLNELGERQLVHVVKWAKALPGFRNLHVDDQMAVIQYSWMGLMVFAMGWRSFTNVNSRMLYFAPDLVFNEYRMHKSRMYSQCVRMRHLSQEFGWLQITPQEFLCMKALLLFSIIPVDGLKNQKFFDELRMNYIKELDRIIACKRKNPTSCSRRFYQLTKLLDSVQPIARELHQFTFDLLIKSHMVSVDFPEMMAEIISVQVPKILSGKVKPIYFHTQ
# Description: Experimental Example 2 the Inhibitory Activity of the Compound According to the Present Invention on the Function of Androgen Receptor (AR)
# Androgen receptor clone (Origene, Cat. No. RC235415)
# pGL4.36 vector (Promega, Cat. No. E1360)
# 1) The cell suspension was diluted with the culture medium for seeding cells to a concentration of 4.0×10^5 cells/ml, for plating and adding transfection reagents.
# 2) The diluted cell suspension was inoculated into a cell culture plate, with 100 μL per well, and the plate was placed in a cell incubator and cultured overnight.
# 3) The transfection reagent was prepared as 10 μL/well, and added into the cell culture plate after 15 min at room temperature, then the plate was placed in a cell incubator and cultured overnight.
# 4) The compound was diluted by a 3-fold gradient with TECAN sampler, to obtain 8 concentration gradients, and the final DMSO concentration was 0.25%. The diluted compound was cultured in a 37° C. incubator for 30 min.
# 5) 250 nL of testosterone at a final concentration of 2 nM was added to the control well with an […] sampler, placed in a cell incubator, and cultured overnight.
# 6) Steady-Glo was added at 100 μL/well to the cell culture plate, and then the plate was left at room temperature for 15 min, followed by reading on Envision.
# The data were analyzed according to the formula % Effect=(Sample value−LC)/(HC−LC)*100, using XL-fit software (provided by Business Solutions Ltd., version number XL fit 5.0). The inhibition rate of each compound against androgen receptor (AR) was calculated, and the half-inhibitory concentration IC50 of each compound against androgen receptor (AR) was further calculated.
SMILES,IC50 (LNCaP/AR cells) [µM],IC50 (22RV1 cells) [µM],IC50 (androgen receptor (AR)) [µM]
CCN(c1ccc(C#N)c(Cl)c1)c1cc(-c2[nH]ncc2C)ccc1C [Compound 7],2.19,,
CCN(c1ccc(-n2cnc(C)c2)c(Br)c1)c1cc(-c2c(C)noc2C)ccc1C [Compound 57],2.38,,
CCN(c1ccc([N+](=O)[O-])cc1)c1cc(-c2c(C)noc2C)ccc1C [Compound 99],0.4,,
CCN(c1ccc(-c2cn[nH]c2C)cc1)c1cc(-c2c(C)noc2C)ccc1C [Compound 126],0.99,3.17,
Cc1ccc(-c2c(C)noc2C)cc1N(CCO)c1ccc(-n2ccnc2)c(Br)c1 [Compound 58],2.32,,
CCN(c1ccc(S(C)(=O)=O)cc1)c1cc(-c2c(C)noc2C)ccc1C [Compound 113],2.53,,
CCN(c1ccc(C#N)c(Cl)c1)c1cc(-c2c(C)noc2C)ccc1C [Compound 14],0.55,,1.5
"CCN(c1ccc(-c2csc(N)n2)cc1)c1cc(-c2c(C)noc2C)ccc1C [Compound 98, 4-(4-((5-(3,5-dimethylisoxazol-4-)-2-methylphenyl)(ethyl)amino)phenyl)thiazol-2-amine]",4.77,,
CCN(c1ccc2[nH]ncc2c1)c1cc(-c2c(C)noc2C)ccc1C [Compound 133],8.74,,
CCN(c1ccc(C2(C#N)CCC2)cc1)c1cc(-c2c(C)noc2C)ccc1C [Compound 112],1.86,,
CCN(c1ccc(-n2cnc(Cl)c2)c(Br)c1)c1cc(-c2c(C)noc2C)ccc1C [Compound 43],2.79,,
CCN(c1ccc(C#N)c(C(F)(F)F)c1)c1cc(-c2c(C)noc2C)ccc1C [Compound 16],1.66,,
Cc1ccc(-c2c(C)noc2C)cc1Nc1ccc(Br)cc1 [Compound 120],,0.63,
CCN(c1ccc(-c2nnc[nH]2)cc1)c1cc(-c2c(C)noc2C)ccc1C [Compound 130],1.16,,
CCN(c1ccc(C#N)c(Cl)c1)c1cc(-c2c(C)n[nH]c2C)ccc1C [Compound 1],0.33,,
CCN(c1ccc(C#N)c(Cl)c1)c1cc(-c2c(C)nn(C(C)C)c2C)ccc1C [Compound 4],1.4,,
CCN(c1ccc(-n2ccnc2)cc1)c1cc2c(C)noc2cc1C [Compound 47],3.3,,
"CCN(c1ccc(-c2cn(C)nn2)cc1)c1cc(-c2c(C)noc2C)ccc1C [Compound 102, 5-(3,5-dimethylisoxazol-4-yl)-N-ethyl-2-methyl-N-(4-(1-methyl-1H-1,2,3-triazol-4-yl)phenyl)aniline]",1.45,,
CCN(c1ccc(-c2c[nH]nn2)cc1)c1cc(-c2c(C)noc2C)ccc1C [Compound 131],0.88,,
"CCN(c1ccc(-c2ncon2)cc1)c1cc(-c2c(C)noc2C)ccc1C [Compound 105, N-(4-(1,2,4-oxadiazole-3-yl)phenyl)-5-(3,5-dimethylisoxazol-4-yl)-N-ethyl-2-methylaniline]",0.71,,
CCN(c1ccc(-c2c(C)noc2C)cc1)c1cc(-c2c(C)noc2C)ccc1C [Compound 104],,,1.3
CCN(c1ccc(-c2cncn2C)cc1)c1cc(-c2c(C)noc2C)ccc1C [Compound 106],0.7,,
CCN(c1ccc(OC(F)(F)F)cc1)c1cc(-c2c(C)noc2C)ccc1C [Compound 109],4.46,,

SMILES,IC50 (LNCaP/AR cells) [µM],IC50 (22RV1 cells) [µM],IC50 (androgen receptor (AR)) [µM]
CCN(c1ccc(C#N)c(Cl)c1)c1cc(-c2c(C)nn(CC)c2C)ccc1C [Compound 3],1.4,,
"CCN(c1ccc2nc[nH]c2c1)c1cc(-c2c(C)noc2C)ccc1C [Compound 115, N-(5-(3,5-dimethylisoxazol-4-yl)-2-methylphenyl) N-ethyl-1H-benzo[d]imidazole-6-amine]",1.3,,
CCN(c1ccc(C(N)=O)cc1)c1cc(-c2c(C)noc2C)ccc1C [Compound 123],3.03,5.64,
CCN(c1ccc2cn[nH]c2c1)c1cc(-c2c(C)noc2C)ccc1C [Compound 114],0.89,,
CCN(c1ccc(-c2nnco2)cc1)c1cc(-c2c(C)noc2C)ccc1C [Compound 129],1.13,9.79,
Cc1ccc(-c2c(C)n[nH]c2C)cc1N(CCCCCO)c1ccc(C#N)c(Cl)c1 [Compound 6],3.67,,
CCN(c1ccc(-n2ccnc2)c(Br)c1)c1cc(-c2c(C)noc2C)cnc1C [Compound 67],2.03,,
CCN(c1ccc(-c2ccon2)cc1)c1cc(-c2c(C)noc2C)ccc1C [Compound 134],0.89,6.06,
CCN(c1ccc(-n2ccnc2)cc1)c1cc(-c2c(C)nn(CCO)c2C)ccc1C [Compound 23],6.42,,
"CCN(c1ccc(-c2cc(C)[nH]n2)cc1)c1cc(-c2c(C)noc2C)ccc1C [Compound 97, 5-(3,5-dimethylisoxazol-4-)-N-ethyl-2-methyl-N-(4-(5-methyl-1H-pyrazol-3-yl)phenyl)aniline]",3.23,,
CCCn1nc(C)c(-c2ccc(C)c(N(CC)c3ccc(C#N)c(Cl)c3)c2)c1C [Compound 5],1.45,,
CCN(c1ccc(-c2ccnn2C)cc1)c1cc(-c2c(C)noc2C)ccc1C [Compound 127],,,3.4
CCN(c1ccc(-n2ccnc2)cc1)c1cc2onc(C)c2cc1C [Compound 48],3.7,,
CCN(c1ccc(-c2cnc[nH]2)cc1)c1cc(-c2c(C)noc2C)ccc1C [Compound 107],3.67,,
CCN(c1ccc(-n2ccnc2)cc1)c1cc(-c2c(C)n[nH]c2C)ccc1C [Compound 21],3.98,,
"CCN(c1ccc(-c2csnn2)cc1)c1cc(-c2c(C)noc2C)ccc1C [Compound 108, N-(4-(1,2,3-thiazol-4-yl)phenyl)-5-(3,5-dimethylisoxazol-4-yl)-N-ethyl-2-methylaniline]",0.76,,
CCN(c1ccc(-n2cncn2)cc1)c1cc(-c2c(C)noc2C)ccc1C [Compound 35],1.2,,
CCN(c1ccc(-n2ccnc2)cc1)c1cc(-c2c(C)noc2C)ccc1C [Compound 25],1.25,,
"CCN(c1ccc(N)cc1)c1cc(-c2c(C)noc2C)ccc1C [Compound 100, N-1-(5-(3,5-dimethylisoxazol-4-yl)-2-methylphenyl) N1-ethylbenzene-1,4-diamine]",0.7,,
CCN(c1ccc2ncn(C)c2c1)c1cc(-c2c(C)noc2C)ccc1C [Compound 132],2.54,,
Cc1ccc(-c2c(C)noc2C)cc1Nc1ccc(-c2c(C)noc2C)cc1 [Compound 119],0.17,,
CCN(c1ccc(OC)cc1)c1cc(-c2c(C)noc2C)ccc1C [Compound 101],,0.07,
